Measurements reported in patent publication US20250129095A1, “ANNULATED 2-AMINO-3-CYANO THIOPHENES AND DERIVATIVES FOR THE TREATMENT OF CANCER” (Boehringer Ingelheim Int'l GmbH Corp., priority 2021, published 2025).

Columns and labels:
KRAS (G12D)::SOS1 = target: T1, KRAS (G12D)::SOS1 (Homo sapiens, UniProt P01116, G12D); test: KRAS::SOS1 AlphaScreen binding assay, KRAS G12D; conditions: read-out: KRASG12D IC50
T1 construct: KRAS (G12D) 1-169, N-terminal 6His-tag, C-terminal avi-tag; 6His-tag (N); purchased Xtal BioStructures, Inc. (KRAS); Viva Biotech Ltd (SOS1)
T1 sequence (P01116 1-169 isoform P01116-2 G12D): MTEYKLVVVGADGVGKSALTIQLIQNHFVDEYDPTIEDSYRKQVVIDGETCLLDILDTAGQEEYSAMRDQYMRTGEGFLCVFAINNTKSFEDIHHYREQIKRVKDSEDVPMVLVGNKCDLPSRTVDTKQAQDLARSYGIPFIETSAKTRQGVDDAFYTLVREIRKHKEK
Excerpt: This assay can be used to examine the potency with which compounds according to the invention binding to (mutated) KRAS inhibit the protein-protein interaction between SOS1 and (mutated) KRAS e.g., KRAS WT, KRAS G12C, KRAS G12D, KRAS G12V, KRAS G13D. […] Low IC50 values in this assay setting are indicative of strong inhibition of protein-protein interaction between SOS1 and KRAS:
These assays measure the inhibitory effect of compounds on KRAS mutant protein-protein interactions using the Alpha Screen technology by Perkin Elmer
The following (mutant) enzyme forms of KRAS and interacting proteins are used in these assays at the given concentrations: • KRAS (G12D) 1-169, N-terminal 6His-tag, C-terminal avi-tag (Xtal BioStructures, Inc.); final assay concentration 10 nM and SOS1 564-1049, N-terminal 229 GST-tag, TEV cleavage site (Viva Biotech Ltd); final assay concentration 5 nM; • KRAS (G12C) 1-169, N-terminal 6His-tag for purification, cleaved off, C-terminal avi-tag, biotinylated, mutations: C51S, C80L, C118S (in house); final assay concentration 7.5 nM and SOS1 564-1049, N-terminal 229 GST-tag, TEV cleavage site (Viva Biotech Ltd); final assay concentration 5 nM; • KRAS (G12V) 1-169, N-terminal 6His-tag for purification, cleaved off, C-terminal avi-tag, biotinylated, TEV cleavage site, mutation: C118S, GDP loaded (in house); final assay concentration 10 nM and SOS1 564-1049, N-terminal 229 GST-tag, TEV cleavage site (Viva Biotech Ltd); final assay concentration 10 nM; • KRAS (G13D) 1-169, N-terminal 6His-tag for purification, cleaved off, C-terminal avi-tag, biotinylated, TEV cleavage site, mutation: C118S, GDP loaded (in house); final assay concentration 10 nM and SOS1 564-1049, N-terminal 229 GST-tag, TEV cleavage site (Viva Biotech Ltd); final assay concentration 10 nM; • KRAS (WT) 1-169, N-terminal 6His-tag for purification, cleaved off, C-terminal avi-tag, biotinylated, TEV cleavage site, mutation: C118S, GDP loaded (in house); final assay concentration 10 nM and SOS1 564-1049, N-terminal 229 GST-tag, TEV cleavage site (Viva Biotech Ltd); final assay concentration 10 nM.
Test compounds dissolved in DMSO are dispensed onto assay plates (Proxiplate 384 PLUS, white, PerkinElmer; 6008289) using an Access Labcyte Workstation with the Labcyte Echo 55×. For the chosen highest assay concentration of 100 μM, 150 nL of compound solution are transferred from a 10 mM DMSO compound stock solution. A series of eleven fivefold dilutions per compound are transferred to the assay plate, compound dilutions are tested in duplicates. DMSO are added as backfill to a total volume of 150 nL.
The assays run on a fully automated robotic system in a darkened room below 100 Lux. To 150 nl of compound dilution 10 μl of a mix including KRAS mutant protein, SOS1 (final assay concentrations see above) and GDP nucleotide (Sigma G7127; final assay concentration 10 μM) in assay buffer (1×PBS, 0.1% BSA, 0.05% Tween 20) are added into columns 1-24.
After 30 minutes incubation time 5 μl of Alpha Screen bead mix in assay buffer are added into columns 1-23. Bead mix consists of AlphaLISA Glutathione Acceptor Beads (PerkinElmer, Cat No AL109) and AlphaScreen Streptavidin Donor Beads (PerkinElmer Cat No 6760002) in assay buffer at a final assay concentration of 10 μg/ml each.
Plates are kept at room temperature in a darkened incubator. After an additional 60 minutes incubation time the signal is measured in a PerkinElmer Envision HTS Multilabel Reader using the AlphaScreen specs from PerkinElmer.
Each plate contains up to 16 wells of a negative control depending on the dilution procedure (platewise or serial) (DMSO instead of test compound; with KRAS mutant::SOS1 GDP mix and bead mix; column 23) and 16wells of a positive control (DMSO instead of test compound; with KRAS mutant::SOS1 GDP mix w/o bead mix; column 24).
As internal control known inhibitors of KRAS mutant::SOS1 interaction can be measured on each compound plate. […]

NCI-H358 cells = test: NCI-H358 CTG proliferation assay (120 h) (NSCLC, G12C); assay type: cell-based; conditions: Homo sapiens
Experimental: Additional Proliferation Assays with Mutant Cancer Cell Lines • NCI-H358 CTG proliferation assay (120 h) (NSCLC, G12C)
NCI-H358 cells (ATCC No. CRL-5807) are dispensed into black 384-well plates, flat and clear bottom (Greiner, PNr. 781091) at a density of 200 cells per well in 60 μl RPMI-1640 ATCC-Formulation (Gibco #A10491)+10% FCS (fetal calf serum). […] For the TO time point measurement, untreated cells are analyzed at the time of compound addition. Plates are incubated for 120 h, and cell viability is measured using CellTiter-Glo luminescent cell viability reagent (Promega product code G7570). Viability (stated as percent of control) is defined as relative luminescence units RLU of each well divided by the RLU of cells in DMSO controls.

KRAS G12C Ba/F3 = KRAS G12C Ba/F3 (Homo sapiens, UniProt P01116, G12C, cells depend on it); test: Ba/F3 proliferation assay, KRAS G12C; assay type: cell-based; conditions: 72 h, AlamarBlue, read-out: KRAS G12C Ba/F3 IC50
Chain of KRAS G12C Ba/F3 (P01116 whole entry G12C, canonical isoform): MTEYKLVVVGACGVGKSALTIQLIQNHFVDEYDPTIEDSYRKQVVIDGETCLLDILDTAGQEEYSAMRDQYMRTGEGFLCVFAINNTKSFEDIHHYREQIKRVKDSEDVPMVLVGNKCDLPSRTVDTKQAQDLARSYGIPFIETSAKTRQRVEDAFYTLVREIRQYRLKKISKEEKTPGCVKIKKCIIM
Experimental: Plasmids containing KRASG12 mutants(i.e. G12D, G12C, G12V) are obtained from GeneScript. To generate KRASG12-dependent Ba/F3 models, Ba/F3 cells are transduced with retroviruses containing vectors that harbor KRASG12 isoforms. Platinum-E cells (Cell Biolabs) are used for retrovirus packaging. Retrovirus is added to Ba/F3 cells. To ensure infection, 4 μg/mL polybrene is added and cells are spinfected. […] Cells with an infection efficiency of 10% to 20% are further cultivated and puromycin selection with 1 μg/mL is initiated. As a control, parental Ba/F3 cells are used to show selection status. Selection is considered successful when parental Ba/F3 cells cultures died. To evaluate the transforming potential of KRASG12 mutations, the growth medium is no longer supplemented with IL-3. Ba/F3 cells harboring the empty vector are used as a control. Approximately ten days before conducting the experiments, puromycin is left out.
Compounds are added using an Access Labcyte Workstation with a Labcyte Echo 550 or 555 accoustic dispenser. All treatments are performed in technical duplicates. […] AlamarBlue™ (ThermoFisher), a viability stain, is added and fluorescence measured in the PerkinElmer Envision HTS Multilabel Reader. The raw data are imported into and analyzed with the Boehringer Ingelheim proprietary software MegaLab (curve fitting based on the program PRISM, GraphPad Inc.).

SMILES | IC50 (KRAS (G12D)::SOS1) [nM] | IC50 (NCI-H358 cells) [nM] | GI50 (KRAS G12C Ba/F3) [nM]
C[C@H](Oc1cc(Nc2cccnn2)nc(-c2noc3c2CCC[C@@]32CCCc3sc(N)c(C#N)c32)n1)[C@@H]1CCCN1C [II-18] | 2 | 430 | 37
C[C@H](Oc1cc(Oc2cnccn2)nc(-c2noc3c2CCC[C@@]32CCCc3sc(N)c(C#N)c32)n1)[C@@H]1CCCN1C [II-7] | 1 | – | 4
C[C@H](Oc1cc(Nc2ccccn2)nc(-c2noc3c2CCC[C@@]32CCCc3sc(N)c(C#N)c32)n1)[C@@H]1CCCN1C [II-16] | 3 | 440 | 24
C[C@H](Oc1cc(Oc2cccnc2)nc(-c2onc3c2CCC[C@@]32CCCc3sc(N)c(C#N)c32)n1)[C@@H]1CCCN1C [Example I-2] | 1 | – | 4
CO[C@@H]1C[C@@H]([C@H](C)Oc2cc(O[C@@H]3CNC3(C)C)nc(-c3noc4c3CCC[C@@]43CCCc4sc(N)c(C#N)c43)n2)N(C)C1 [II-30] | 1 | 85 | 219
C[C@H](Oc1cc(O[C@@H]2CNC[C@@H]2F)nc(-c2noc3c2CCC[C@@]32CCCc3sc(N)c(C#N)c32)n1)[C@@H]1CCCN1C [II-29] | 1 | 36 | 79
C[C@H](Oc1cc(Sc2ncccn2)nc(-c2onc3c2CCC[C@@]32CCCc3sc(N)c(C#N)c32)n1)[C@@H]1CCCN1C [Example I-7] | 6 | 5620 | 75
C[C@H](Oc1cc(Oc2cncnc2)nc(-c2noc3c2CCC[C@@]32CCCc3sc(N)c(C#N)c32)n1)[C@@H]1CCCN1C [II-1] | 1 | 178 | 4
C[C@H](Oc1cc(Nc2nccs2)nc(-c2noc3c2CCC[C@@]32CCCc3sc(N)c(C#N)c32)n1)[C@@H]1CCCN1C [II-12] | 6 | 819 | 44
C[C@H](Oc1cc(Nc2ncco2)nc(-c2noc3c2CCC[C@@]32CCCc3sc(N)c(C#N)c32)n1)[C@@H]1CCCN1C [II-13] | 2 | 146 | 17
C[C@H](Oc1cc(O[C@H]2CN(C)C(C)(C)C2)nc(-c2noc3c2CCC[C@@]32CCCc3sc(N)c(C#N)c32)n1)[C@@H]1CCCN1C [II-19] | 1 | 3270 | 218
C[C@H](Oc1cc(Oc2nccs2)nc(-c2onc3c2CCC[C@@]32CCCc3sc(N)c(C#N)c32)n1)[C@@H]1CCCN1C [Example I-1] | 2 | – | 4
C[C@H](Oc1cc(OCC2(N(C)C)CC2)nc(-c2noc3c2CCC[C@@]32CCCc3sc(N)c(C#N)c32)n1)[C@@H]1CCCN1C [II-21] | 1 | – | 195

The next lines start with the values.

IC50 (KRAS (G12D)::SOS1) [nM] | IC50 (NCI-H358 cells) [nM] | GI50 (KRAS G12C Ba/F3) [nM] | SMILES
2 | 115 | 5 | C[C@H](Oc1cc(Oc2nccs2)nc(-c2noc3c2CCC[C@@]32CCCc3sc(N)c(C#N)c32)n1)[C@@H]1CCCN1C [II-2]
4 | 2280 | 83 | C[C@H](Oc1cc(N[C@H]2CCOC2)nc(-c2onc3c2CCC[C@@]32CCCc3sc(N)c(C#N)c32)n1)[C@@H]1CCCN1C [Example I-4]
2 | – | 376 | C[C@H](Oc1cc(N(C)CCN(C)C)nc(-c2noc3c2CCC[C@@]32CCCc3sc(N)c(C#N)c32)n1)[C@@H]1CCCN1C [II-20]
1 | 339 | 17 | COCCOc1cc(O[C@@H](C)[C@@H]2CCCN2C)nc(-c2noc3c2CCC[C@@]32CCCc3sc(N)c(C#N)c32)n1 [II-5]
2 | 193 | 12 | C[C@H](Oc1cc(O[C@H]2CCOC2)nc(-c2noc3c2CCC[C@@]32CCCc3sc(N)c(C#N)c32)n1)[C@@H]1CCCN1C [II-4]
1 | 952 | 2080 | C[C@H]1CN(C)CCCN1c1cc(O[C@@H]2CNC2(C)C)nc(-c2noc3c2CCC[C@@]32CCCc3sc(N)c(C#N)c32)n1 [II-28]
12 | – | 71 | COC[C@H](C)Nc1cc(O[C@@H](C)[C@@H]2CCCN2C)nc(-c2onc3c2CCC[C@@]32CCCc3sc(N)c(C#N)c32)n1 [Example I-5]
2 | 275 | 17 | C[C@H](Oc1cc(Oc2ccon2)nc(-c2noc3c2CCC[C@@]32CCCc3sc(N)c(C#N)c32)n1)[C@@H]1CCCN1C [II-3]
1 | – | 22 | C[C@H](Oc1cc(OCC2(N(C)C)COC2)nc(-c2noc3c2CCC[C@@]32CCCc3sc(N)c(C#N)c32)n1)[C@@H]1CCCN1C [II-22]
2 | 76 | 51 | C[C@H](Oc1cc(OCC2(N(C)C)COC2)nc(-c2onc3c2CCC[C@@]32CCCc3sc(N)c(C#N)c32)n1)[C@@H]1CCCN1C [Example I-8]
1 | – | 4 | C[C@H](Oc1cc(Oc2cncnc2)nc(-c2onc3c2CCC[C@@]32CCCc3sc(N)c(C#N)c32)n1)[C@@H]1CCCN1C [Example I-3]
1 | – | 85 | COc1c(OCC2(N(C)C)COC2)nc(-c2noc3c2CCC[C@@]32CCCc3sc(N)c(C#N)c32)nc1O[C@@H](C)[C@@H]1CCCN1C [II-25]
1 | – | 14 | C[C@H](Oc1cc(NCC2COC2)nc(-c2noc3c2CCC[C@@]32CCCc3sc(N)c(C#N)c32)n1)[C@@H]1CCCN1C [II-11]
2 | – | 61 | C[C@H](Oc1cc(N(C)C)nc(-c2noc3c2CCC[C@@]32CCCc3sc(N)c(C#N)c32)n1)[C@@H]1CCCN1C [II-10]
